From patent US9776990B2, “Isoindolone derivatives” (AbbVie Inc., priority 2012, dated 2017)

Experiments:
BRD4 (BDI_K57-E168) = BRD4 (BDI_K57-E168) (Homo sapiens (Human), UniProt O60885); assay: TR-FRET bromodomain binding assay, BRD4 first bromodomain; conditions: His-tagged BD1, 100 nM Alexa647 probe
Description: (§1) A time-resolved fluorescence resonance energy transfer (TR-FRET) assay was used to determine the affinities of compounds of the Examples listed in Table 1 for each bromodomain of BRD4. His-tagged first (BD1: amino acids K57-E168) and second (BD2: amino acids E352-E168) bromodomains of BRD4 were expressed and purified. An Alexa647-labeled BET-inhibitor was used as the fluorescent probe in the assay.
(§2) Compound dilution series were prepared in DMSO via a 3-fold serial dilution from 2.5 mM to 42 nM. Compounds were then diluted 6:100 in assay buffer (20 mM Sodium Phosphate, pH 6.0, 50 mM NaCl, 1 mM EDTA, 0.01% Triton X-100, 1 mM DTT) to yield 3× working solutions. Six microliters (μL) of the working solution was then transferred to white, low-volume assay plates (Costar #3673). A 1.5× assay mixture containing His-tagged bromodomain, Europium-conjugated anti-His antibody (Invitrogen PV5596) and the Alexa-647-conjugated probe molecule was also prepared. Twelve μL of this solution were added to the assay plate to reach a final volume of 18 μL. The final concentration of 1× assay buffer contains 2% DMSO, 50 μM−0.85 nM compound, 8 nM bromodomain, 1 nM antibody and 100 or 30 nM probe (for BDI or BDII, respectively). After a one-hour incubation at room temperature, TR-FRET ratios were determined using an Envision multilabel plate reader (Ex 340, Em 495/520).
(§3) TR-FRET data were normalized to the means of 24 no-compound controls (“high”) and 8 controls containing 1 μM un-labeled probe (“low”). Percent inhibition was plotted as a function of compound concentration and the data were fit with the 4 parameter logistic equation to obtain IC50s Inhibition constants (Ki) were calculated from the IC50s, probe Kd and probe concentration. Typical Z′ values were between 0.65 and 0.75. The minimum significant ratio was determined to evaluate assay reproducibility (Eastwood et al., (2006) J Biomol Screen, 11: 253-261). The MSR was determined to be 2.03 for BDI and 1.93 for BDII, and a moving MSR (last six run MSR overtime) for both BDI and BDII was typically <3.

BRD4 (BDII_E352-M457) = BRD4 (BDII_E352-M457) (Homo sapiens (Human), UniProt O60885); assay: TR-FRET bromodomain binding assay, BRD4 second bromodomain; conditions: His-tagged BD2, 30 nM Alexa647 probe
Description: as §1, §2, §3

Ki (BRD4 (BDI_K57-E168)) [nM] | Ki (BRD4 (BDII_E352-M457)) [nM] | Compound
1140 | 22200 | Cc1[nH]c(-c2ccccc2Cl)c2c1C(=O)CCC2 [Example 15, 1-(2-chlorophenyl)-3-methyl-2,5,6,7-tetrahydro-4H-isoindol-4-one]
2470 | 8210 | Cc1[nH]c(-c2cccc3cc[nH]c23)c2c1C(=O)CCC2 [Example 22, 1-(1H-indol-7-yl)-3-methyl-2,5,6,7-tetrahydro-4H-isoindol-4-one]
5510 | 17500 | Cc1cc(C)cc(-c2[nH]c(C)c3c2CCCC3=O)c1 [Example 17, 1-(3,5-dimethylphenyl)-3-methyl-2,5,6,7-tetrahydro-4H-isoindol-4-one]
3730 | 15000 | Cc1[nH]c(-c2ccccc2N)c2c1C(=O)CCC2 [Example 3, 1-(2-aminophenyl)-3-methyl-2,5,6,7-tetrahydro-4H-isoindol-4-one]
786 | 1030 | Cc1[nH]c(-c2ccccc2Oc2ccccc2)c2c1C(=O)CC(C)(C)C2 [Example 63, 3,6,6-trimethyl-1-(2-phenoxyphenyl)-2,5,6,7-tetrahydro-4H-isoindol-4-one]
2760 | 6580 | Cc1[nH]c(-c2ccccc2-c2ccco2)c2c1C(=O)CCC2 [Example 27, 1-[2-(furan-2-yl)phenyl]-3-methyl-2,5,6,7-tetrahydro-4H-isoindol-4-one]
1200 | 2300 | Cc1[nH]c(-c2ccccc2COc2ccccc2)c2c1C(=O)CCC2 [Example 24, 3-methyl-1-[2-(phenoxymethyl)phenyl]-2,5,6,7-tetrahydro-4H-isoindol-4-one]
2200 | 1680 | Cc1[nH]c(-c2ccccc2N2CCOCC2)c2c1C(=O)CC(C)(C)C2 [Example 61, 3,6,6-trimethyl-1-[2-(morpholin-4-yl)phenyl]-2,5,6,7-tetrahydro-4H-isoindol-4-one]
3620 | 22200 | 3-methyl-6-(2-methylpropyl)-1-(2-phenoxyphenyl)-2,5,6,7-tetrahydro-4H-isoindol-4-one [Example 68]
4240 | 15100 | Cc1ccccc1OCc1ccccc1-c1[nH]c(C)c2c1CCCC2=O [Example 25, 3-methyl-1-{2-[(2-methylphenoxy)methyl]phenyl}-2,5,6,7-tetrahydro-4H-isoindol-4-one]
2700 | 9970 | COc1ccccc1-c1[nH]c(C)c2c1CCCC2=O [Example 6, 1-(2-methoxyphenyl)-3-methyl-2,5,6,7-tetrahydro-4H-isoindol-4-one]
1200 | 2220 | Cc1[nH]c(-c2ccccc2Oc2ccccc2)c2c1C(=O)CC(C(C)C)C2 (centres unmarked) [Example 70, 3-methyl-1-(2-phenoxyphenyl)-6-(propan-2-yl)-2,5,6,7-tetrahydro-4H-isoindol-4-one]
164 | 943 | Cc1[nH]c(-c2cc(NC(=O)c3ccc[nH]3)ccc2Oc2ccc(F)cc2F)c2c1C(=O)CCC2 [Example 51, N-[4-(2,4-difluorophenoxy)-3-(3-methyl-4-oxo-4,5,6,7-tetrahydro-2H-isoindol-1-yl)phenyl]-1H-pyrrole-2-carboxamide]
2490 | 15900 | Cc1ccc(-c2[nH]c(C)c3c2CCCC3=O)cc1 [Example 4, 3-methyl-1-(4-methylphenyl)-2,5,6,7-tetrahydro-4H-isoindol-4-one]
9060 | 22200 | Cc1[nH]c(-c2cccc(OCc3ccccc3)c2)c2c1C(=O)CCC2 [Example 14, 1-[3-(benzyloxy)phenyl]-3-methyl-2,5,6,7-tetrahydro-4H-isoindol-4-one]
3230 | 2520 | Cc1[nH]c(-c2ccccc2)c2c1C(=O)CC(C)(C)C2 [Example 59, 3,6,6-trimethyl-1-phenyl-2,5,6,7-tetrahydro-4H-isoindol-4-one]
45 | 289 | Cc1[nH]c(-c2cc(C(=O)O)ccc2Oc2ccccc2)c2c1C(=O)CCC2 [Example 54, 3-(3-methyl-4-oxo-4,5,6,7-tetrahydro-2H-isoindol-1-yl)-4-phenoxybenzoic Acid]

Ki (BRD4 (BDI_K57-E168)) [nM] | Ki (BRD4 (BDII_E352-M457)) [nM] | Compound
7290 | 22200 | Cc1[nH]c(-c2ccc(Cl)cc2)c2c1C(=O)CCC2 [Example 13, 1-(4-chlorophenyl)-3-methyl-2,5,6,7-tetrahydro-4H-isoindol-4-one]
927 | 3670 | COC(=O)c1ccc(Oc2ccccc2)c(-c2[nH]c(C)c3c2CCCC3=O)c1 [Example 53, methyl 3-(3-methyl-4-oxo-4,5,6,7-tetrahydro-2H-isoindol-1-yl)-4-phenoxybenzoate]
9090 | 8920 | Cc1[nH]c(-c2ccccc2COc2cccc(C(F)(F)F)c2)c2c1C(=O)CCC2 [Example 23, 3-methyl-1-(2-{[3-(trifluoromethyl)phenoxy]methyl}phenyl)-2,5,6,7-tetrahydro-4H-isoindol-4-one]
3370 | 2700 | Cc1ccc(C)c(-c2[nH]c(C)c3c2CC(C)(C)CC3=O)c1 [Example 60, 1-(2,5-dimethylphenyl)-3,6,6-trimethyl-2,5,6,7-tetrahydro-4H-isoindol-4-one]
1860 | 5920 | Cc1[nH]c(-c2cccc3[nH]cnc23)c2c1C(=O)CCC2 [Example 21, 1-(1H-benzimidazol-4-yl)-3-methyl-2,5,6,7-tetrahydro-4H-isoindol-4-one]
1500 | 1750 | Cc1[nH]c(-c2ccccc2OCc2ccccc2)c2c1C(=O)CC(C)(C)C2 [Example 62, 1-[2-(benzyloxy)phenyl]-3,6,6-trimethyl-2,5,6,7-tetrahydro-4H-isoindol-4-one]
1070 | 22200 | Cc1[nH]c(-c2cc(C(=O)Nc3nccs3)ccc2Oc2ccccc2)c2c1C(=O)CCC2 [Example 57, 3-(3-methyl-4-oxo-4,5,6,7-tetrahydro-2H-isoindol-1-yl)-4-phenoxy-N-(1,3-thiazol-2-yl)benzamide]
1250 | 4780 | Cc1[nH]c(-c2ccccc2OCC2CCCC2)c2c1C(=O)CCC2 [Example 30, 1-[2-(cyclopentylmethoxy)phenyl]-3-methyl-2,5,6,7-tetrahydro-4H-isoindol-4-one]
14 | 52 | Cc1[nH]c(-c2cc(NS(C)(=O)=O)ccc2Oc2ccc(F)cc2F)c2c1C(=O)CCC2 [Example 46, N-[4-(2,4-difluorophenoxy)-3-(3-methyl-4-oxo-4,5,6,7-tetrahydro-2H-isoindol-1-yl)phenyl]methanesulfonamide]
58 | 69 | Cc1[nH]c(-c2cc(N)ccc2Oc2ccccc2)c2c1C(=O)CC(C)C2 (centres unmarked) [Example 66, 1-(5-amino-2-phenoxyphenyl)-3,6-dimethyl-2,5,6,7-tetrahydro-4H-isoindol-4-one]
1770 | 4490 | COc1cccc(-c2[nH]c(C)c3c2CCCC3=O)c1 [Example 20, 1-(3-methoxyphenyl)-3-methyl-2,5,6,7-tetrahydro-4H-isoindol-4-one]
8830 | 9730 | Cc1[nH]c(-c2ccccc2OCc2cccc3ccsc23)c2c1C(=O)CCC2 [Example 36, 1-[2-(1-benzothiophen-7-ylmethoxy)phenyl]-3-methyl-2,5,6,7-tetrahydro-4H-isoindol-4-one]
5310 | 15000 | Cc1[nH]c(-c2ccccc2O)c2c1C(=O)CCC2 [Example 28, 1-(2-hydroxyphenyl)-3-methyl-2,5,6,7-tetrahydro-4H-isoindol-4-one]
3770 | 8420 | Cc1[nH]c(-c2ccc3c(c2)OCO3)c2c1C(=O)CCC2 [Example 16, 1-(1,3-benzodioxol-5-yl)-3-methyl-2,5,6,7-tetrahydro-4H-isoindol-4-one]
255 | 504 | Cc1[nH]c(-c2ccccc2Oc2ccccc2)c2c1C(=O)CCC2 [Example 2, 3-methyl-1-(2-phenoxyphenyl)-2,5,6,7-tetrahydro-4H-isoindol-4-one]
34 | 461 | Cc1[nH]c(-c2cc(S(C)(=O)=O)ccc2OCC2CC2)c2c1C(=O)CCC2 [Example 73, 1-[2-(cyclopropylmethoxy)-5-(methylsulfonyl)phenyl]-3-methyl-2,5,6,7-tetrahydro-4H-isoindol-4-one]
7280 | 22200 | Cc1[nH]c(-c2cc(NS(C)(=O)=O)ccc2Oc2ccccc2)c2c1C(=O)CC(c1ccccc1)C2 (centres unmarked) [Example 72, N-[3-(3-methyl-4-oxo-6-phenyl-4,5,6,7-tetrahydro-2H-isoindol-1-yl)-4-phenoxyphenyl]methanesulfonamide]
